We go through 27 compounds from patent US20100292210A1, “Novel Compounds for A-Beta-Related Pathologies” (AstraZeneca AB, priority 2009, published 2010).

The structures appear in SMILES notation.

This experiment deals with Aβ42 release. As to the kind of experiment: Aβ42 release from HEK cells stably expressing APPswe, Meso Scale Discovery electrochemiluminescence assay. In kind it is cell-based. The note with it: Homo sapiens, HEK293; HEK cell line stably expressing APPswe; 4-6 h incubation with test compound; Aβ42 secreted to cell medium; read-out: pIC50 values of Aβ42 release (converted). The procedure: The level of activity of the compounds on Aβ formation was tested using the following method:
Compounds were diluted in 100% DMSO and stored at […] prior to use. Human Embryonic Kidney (HEK) cell line stably expressing APP with the Swedish mutation (APPswe) were cultured using Dulbecco's Modified Eagles medium (DMEM) supplied with […] glucose, Na-pyruvate and GlutaMAX with 10% FBS, 100 U/ml penicillin-streptomycin (PEST) respectively, 1×non-essential amino acids (NEAA), […], 100 μg/ml Zeocine. Cells at about 80% confluence were washed with PBS, detached from culture flasks using 1×Trypsin/EDTA diluted in PBS, re-suspended in cell media and plated in 384-well poly-d-lysine coated cell culture plates at about 10000-15000 cells/well, in 25 μL cell media. Optionally, cryo-preserved cells (frozen and stored at −140° C. in 90% cell media and 10% DMSO) were thawed, washed and plated as above. Next the cells were incubated for 15-24 h at 37° C. and 5% CO2, after which cell medium was changed. Fresh medium containing test compound diluted ×200 from prepared compound plate was added to the cells before further incubation for 4-6 hours at 37° C. and 5% CO2. After incubation with test compound the amount of Aβ peptides, including Aβ42, Aβ40, Aβ39, Aβ38 and Aβ37, secreted to cell medium was analyzed using the electrochemiluminescence assay technology from Meso Scale Discovery Technology, in combination with specific antibodies raised against the different Aβ peptides. Potential cytotoxic effects of the compounds were usually assayed by measuring the ATP content (ViaLight) from cell lysate.
With `COc1cc(Nc2ccc3c(n2)OC(c2ccccc2)CN(C)C3)ccc1-n1cnc(C)c1` (stereo not drawn) [Example 7, N-(3-methoxy-4-(4-methyl-1H-imidazol-1-yl)phenyl)-4-methyl-2-phenyl-2,3,4,5-tetrahydropyrido[3,2-f][1,4]oxazepin-8-amine], the IC50 was 39.8 nM.
In the case of `CN1CC(c2ccccc2)Oc2nc(Nc3ccc(-c4cnco4)cc3)ccc2C1=O` (stereo not drawn) [Example 3, 4-methyl-8-(4-(1,3-oxazol-5-yl)phenylamino)-2-phenyl-3,4-dihydropyrido[3,2-f][1,4]oxazepin-5(2H)-one], the IC50 is 398 nM.
As for `COc1cc(Nc2ccc3c(n2)OC(c2ccccc2)CN(CCO)C3)ccc1-n1cnc(C)c1` (stereo not drawn) [Example 46, 2-(8-(3-Methoxy-4-(4-methyl-1H-imidazol-1-yl)phenylamino)-2-phenyl-2,3-dihydropyrido[3,2-f][1,4]oxazepin-4(5H)-yl)ethanol], the IC50 was 25.1 nM.
Take `COc1cc(Nc2ccc3c(n2)O[C@@H](c2ccccc2)CN(C)C3)ccc1-n1cnc(C)c1` [Example 21, (S)—N-(3-methoxy-4-(4-methyl-1H-imidazol-1-yl)phenyl)-4-methyl-2-phenyl-2,3,4,5-tetrahydropyrido[3,2-f][1,4]oxazepin-8-amine]: the IC50 was 200 nM.
Under `COc1cc(Nc2ccc3c(n2)OC(c2ccccc2)CN(C(C)=O)C3)ccc1-n1cnc(C)c1` (stereo not drawn) [Example 17, 1-(8-(3-methoxy-4-(4-methyl-1H-imidazol-1-yl)phenylamino)-2-phenyl-2,3-dihydropyrido[3,2-f][1,4]oxazepin-4(5H)-yl)ethanone] stands 79.4 nM; under `Cc1nccn1-c1ccc(Nc2ccc3c(n2)OC(c2ccccc2)CN(C)C3=O)cc1` (stereo not drawn) [Example 2, 4-methyl-8-(4-(2-methyl-1H-imidazol-1-yl)phenylamino)-2-phenyl-3,4-dihydropyrido[3,2-f][1,4]oxazepin-5(2H)-one], 1260 nM.
In the case of `Cc1ncn(-c2ccc(Nc3ccc4c(n3)O[C@H](c3ccccc3)CN(C)C4)cc2)n1` [Example 48, (R)-4-Methyl-N-(4-(3-methyl-1H-1,2,4-triazol-1-yl)phenyl)-2-phenyl-2,3,4,5-tetrahydropyrido[3,2-f][1,4]oxazepin-8-amine], the IC50 is 100 nM.
To `COc1cc(Nc2ccc3c(n2)OC(COC(C)C)CN(C)C3)ccc1-n1cnc(C)c1` (stereo not drawn) [Example 35, 2-(Isopropoxymethyl)-N-(3-methoxy-4-(4-methyl-1H-imidazol-1-yl)phenyl)-4-methyl-2,3,4,5-tetrahydropyrido[3,2-f][1,4]oxazepin-8-amine] belongs 200 nM.
With `OCCN1Cc2ccc(Nc3ccc(-c4nnc5n4CCC5)cc3)nc2O[C@H](c2ccccc2)C1` [Example 26, (R)-2-(8-(4-(6,7-Dihydro-5H-pyrrolo[2,1-c][1,2,4]triazol-3-yl)phenylamino)-2-phenyl-2,3-dihydropyrido[3,2-f][1,4]oxazepin-4(5H)-yl)ethanol], the IC50 is 20000 nM.
As to `Cc1noc(-c2ccc(Nc3ccc4c(n3)OC(c3ccccc3)CN(C)C4=O)cc2)n1` (stereo not drawn) [Example 1, 4-methyl-8-(4-(3-methyl-1,2,4-oxadiazol-5-yl)phenylamino)-2-phenyl-3,4-dihydropyrido[3,2-f][1,4]oxazepin-5(2H)-one], the IC50 is 1580 nM.
`CN1CC(c2ccccc2)Oc2nc(Nc3ccc(-n4ccnc4)cc3)ccc2C1=O` (stereo not drawn) [Example 5, 8-(4-(1H-imidazol-1-yl)phenylamino)-4-methyl-2-phenyl-3,4-dihydropyrido[3,2-f][1,4]oxazepin-5(2H)-one]: the IC50 was 1000 nM.
Take `COc1cc(Nc2ccc3c(n2)OC(COC(C)C)CN(C(C)=O)C3)ccc1-n1cnc(C)c1` (stereo not drawn) [Example 31, 1-(2-(Isopropoxymethyl)-8-(3-methoxy-4-(4-methyl-1H-imidazol-1-yl)phenylamino)-2,3-dihydropyrido[3,2-f][1,4]oxazepin-4(5H)-yl)ethanone]: the IC50 is 631 nM.
To `Cc1nccn1-c1ccc(Nc2ccc3c(n2)OC(c2ccccc2)CN(C)C3)cc1` (stereo not drawn) [Example 8, 4-Methyl-N-(4-(2-methyl-1H-imidazol-1-yl)phenyl)-2-phenyl-2,3,4,5-tetrahydropyrido[3,2-f][1,4]oxazepin-8-amine] belongs 158 nM.
For `Cc1nccn1-c1ccc(Nc2ccc3c(n2)OC(c2ccccc2)CN(CCO)C3=O)cc1` (stereo not drawn) [Example 24, 4-(2-hydroxyethyl)-8-(4-(2-methyl-1H-imidazol-1-yl)phenylamino)-2-phenyl-3,4-dihydropyrido[3,2-f][1,4]oxazepin-5(2H)-one], the IC50 is 794 nM.
Under `CN1Cc2ccc(Nc3ccc(-n4ccnc4CO)cc3)nc2O[C@H](c2ccccc2)C1` [Example 60, (R)-(1-(4-(4-Methyl-2-phenyl-2,3,4,5-tetrahydropyrido[3,2-f][1,4]oxazepin-8-ylamino)phenyl)-1H-imidazol-2-yl)methanol] stands 31.6 nM; under `COc1cc(Nc2ncc3c(n2)O[C@H](c2ccccc2)CN(CCF)C3)ccc1-n1cnc(C)c1` [Example 12, (R)-6-(2-fluoroethyl)-N-(3-methoxy-4-(4-methyl-1H-imidazol-1-yl)phenyl)-8-phenyl-5,6,7,8-tetrahydropyrimido[5,4-f][1,4]oxazepin-2-amine], 15.8 nM.
For `COc1cc(Nc2cnc3c(n2)O[C@H](c2ccccc2)CN(C)C3)ccc1-n1cnc(C)c1` [Example 39, (R)—N-(3-Methoxy-4-(4-methyl-1H-imidazol-1-yl)phenyl)-8-methyl-6-phenyl-6,7,8,9-tetrahydropyrazino[2,3-f][1,4]oxazepin-3-amine], the IC50 was 79.4 nM.
As to `COc1cc(Nc2ccc3c(n2)O[C@H](c2ccccc2)CN(CCO)C3)cnc1-n1cnc(C)c1` [Example 43, (R)-2-(8-(5-methoxy-6-(4-methyl-1H-imidazol-1-yl)pyridin-3-ylamino)-2-phenyl-2,3-dihydropyrido[3,2-f][1,4]oxazepin-4(5H)-yl)ethanol], the IC50 is 31.6 nM.
To `Cc1cccc(C2CN(C)Cc3ccc(Nc4ccc(-c5cnn(C)c5)nc4)nc3O2)n1` (stereo not drawn) [Example 54, 4-Methyl-N-(6-(1-methyl-1H-pyrazol-4-yl)pyridin-3-yl)-2-(6-methylpyridin-2-yl)-2,3,4,5-tetrahydropyrido[3,2-f][1,4]oxazepin-8-amine] belongs more than 3160 nM; to `Cc1nccn1-c1ccc(Nc2ccc3c(n2)OC(c2ccccc2)CN(C)C3=O)cn1` (stereo not drawn) [Example 6, 4-methyl-8-(6-(2-methyl-1H-imidazol-1-yl)pyridin-3-ylamino)-2-phenyl-3,4-dihydropyrido[3,2-f][1,4]oxazepin-5(2H)-one], 6310 nM; to `COc1nc(Nc2ccc3c(n2)O[C@H](c2ccccc2)CN(C)C3)ccc1-c1cnn(C)c1` [Example 50, (R)—N-(6-Methoxy-5-(1-methyl-1H-pyrazol-4-yl)pyridin-2-yl)-4-methyl-2-phenyl-2,3,4,5-tetrahydropyrido[3,2-f][1,4]oxazepin-8-amine], 7.94 nM.
Turning to `COc1cc(Nc2ccc3c(n2)OC(c2ccccc2)CN(CCF)C3)ccc1-n1cnc(C)c1` (stereo not drawn) [Example 15, 4-(2-fluoroethyl)-N-(3-methoxy-4-(4-methyl-1H-imidazol-1-yl)phenyl)-2-phenyl-2,3,4,5-tetrahydropyrido[3,2-f][1,4]oxazepin-8-amine], the IC50 is 31.6 nM.
To `COc1cc(Nc2ccc3c(n2)OC(c2ccccc2)CN(CCO)C3=O)ccc1-n1cnc(C)c1` (stereo not drawn) [Example 20, 4-(2-Hydroxyethyl)-8-(3-methoxy-4-(4-methyl-1H-imidazol-1-yl)phenylamino)-2-phenyl-3,4-dihydropyrido[3,2-f][1,4]oxazepin-5(2H)-one] belongs 200 nM; to `COc1nc(Nc2ccc3c(n2)O[C@H](c2ccccc2)CN(C)C3)ccc1-n1cnc(C)c1` [Example 9, (R)—N-(6-methoxy-5-(4-methyl-1H-imidazol-1-yl)pyridin-2-yl)-4-methyl-2-phenyl-2,3,4,5-tetrahydropyrido[3,2-f][1,4]oxazepin-8-amine], 7.94 nM.
Regarding `COc1cc(Nc2ccc3c(n2)OC(c2cccnc2)CN(C(C)=O)C3)ccc1-n1cnc(C)c1` (stereo not drawn) [Example 22, 1-(8-(3-Methoxy-4-(4-methyl-1H-imidazol-1-yl)phenylamino)-2-(pyridin-3-yl)-2,3-dihydropyrido[3,2-f][1,4]oxazepin-4(5H)-yl)ethanone], the IC50 was 501 nM.
Take `COc1cc(Nc2ccc3c(n2)O[C@H](c2ccccc2)CN(C)C3)ccc1-n1cnc(C)c1` [Example 10, (R)—N-(3-methoxy-4-(4-methyl-1H-imidazol-1-yl)phenyl)-4-methyl-2-phenyl-2,3,4,5-tetrahydropyrido[3,2-f][1,4]oxazepin-8-amine]: the IC50 is 12.6 nM.
Turning to `COc1cc(Nc2ccc3c(n2)OC(C2CC2)CN(C)C3)ccc1-n1cnc(C)c1` (stereo not drawn) [Example 49, 2-Cyclopropyl-N-(3-methoxy-4-(4-methyl-1H-imidazol-1-yl)phenyl)-4-methyl-2,3,4,5-tetrahydropyrido[3,2-f][1,4]oxazepin-8-amine], the IC50 was 100 nM.
